pIC50: −log10 of the molar value. Read-outs that look alike come from different tables or passages of the source.

For data set [1] the following is noted: microsomes.
Data set [2] addresses Mtb Lpd (Mycobacterium tuberculosis (strain ATCC 25618 / H37Rv), UniProt P9WHH9). It counts as biochemical. The following applies: for IC50: 30 min preincubation, read-out: LPD IC50 (μM) w/ 30 min preincubation; for pIC50: read-out: LPD IC50.

Regarding `Cc1cc(S(=O)(=O)N(C)CC(=O)Nc2ccc3c(c2)OCCN3C2COC2)c2[nH]c(C#N)cc2c1` [Example 189], the “Human Liver Microsome Stability” value in data set [1] worked out at 142 µL/min/mg. In data set [2], the IC50 worked out at 0.018 µM and the pIC50 was 7.12.

Regarding `Cc1cc(S(=O)(=O)N2CC[C@@H](C(=O)Nc3ccc4c(c3)OCCN4C3CCOCC3)C2)c2n[nH]cc2c1` [Example 122], the “Human Liver Microsome Stability” value in data set [1] is 26 µL/min/mg. Further, the pIC50 in data set [2] was 7.52. Regarding `CC(=O)N1CCOc2cc(NC(=O)CN(C)S(=O)(=O)c3cc(C)cc4cn[nH]c34)ccc21` [Example 90], the “Human Liver Microsome Stability” value in data set [1] turned out to be 18 µL/min/mg. Consider `COc1cc(NC(=O)CN(C)S(=O)(=O)c2cc(C)cc3cc(C#N)[nH]c23)ccn1` [Example 214, 2-((2-cyano-N,5-dimethyl-1H-indole)-7-sulfonamido)-N-(2-methoxypyridin-4-yl)acetamide], for which the “Human Liver Microsome Stability” value in data set [1] was 91 µL/min/mg. For the same molecule, the IC50 in data set [2] is 0.021 µM. Turning to `Cc1cc(S(=O)(=O)N2CC[C@H]2C(=O)Nc2ccc3c(c2)OCCN3C2CCOCC2)c2n[nH]cc2c1` [Example 144], the “Human Liver Microsome Stability” value in data set [1] stood at 166 µL/min/mg. Besides, the pIC50 in data set [2] was 7.42. Consider `CCN(CC(=O)Nc1ccc(OC)c(Cl)c1)S(=O)(=O)c1cc(C)cc2cn[nH]c12` [Example 15, N-(3-chloro-4-methoxyphenyl)-2-((N-ethyl-5-methyl-1H-indazole)-7-sulfonamido)acetamide], for which the “Human Liver Microsome Stability” value in data set [1] is 528 µL/min/mg. Besides, the pIC50 in data set [2] was 7.38. With `Cc1cc(S(=O)(=O)N2CC[C@H]2C(=O)Nc2ccc3c(c2)OCCN3C2COC2)c2[nH]c(C#N)cc2c1` [Example 206, (S)-1-((2-cyano-5-methyl-1H-indol-7-yl)sulfonyl)-N-(4-(oxetan-3-yl)-3,4-dihydro-2H-benzo[b][1,4]oxazin-7-yl)azetidine-2-carboxamide], the “Human Liver Microsome Stability” value in data set [1] worked out at 111 µL/min/mg. For the same molecule, in data set [2], the IC50 was found to be 0.022 µM and the pIC50 was 7.09. Taken in the same sequence, the figures for `Cc1cc(S(=O)(=O)N2CC[C@H]2C(=O)Nc2ccc(OCCN(C)C)c(Cl)c2)c2[nH]ncc2c1` [Example 199] were -7 µL/min/mg, 0.045 µM and 6.73. For `O=C(Nc1ccc2c(c1)OCCN2C1COC1)[C@@H]1CCN1S(=O)(=O)c1cc(C(F)F)cc2c(F)n[nH]c12` [Example 184, (S)-1-((5-(difluoromethyl)-3-fluoro-1H-indazol-7-yl)sulfonyl)-N-(4-(oxetan-3-yl)-3,4-dihydro-2H-benzo[b][1,4]oxazin-7-yl)azetidine-2-carboxamide], the “Human Liver Microsome Stability” value in data set [1] came to 36 µL/min/mg. For the same molecule, in data set [2], the pIC50 is 6.83. Taken in the same sequence, the figures for `Cc1cc(S(=O)(=O)N(C)CC(=O)NCC#Cc2ccccc2)c2[nH]ncc2c1` [Example 203] were 129 µL/min/mg and 7.37. In the same order, the values of `Cc1cc(S(=O)(=O)N(C)CC(=O)Nc2ccn(C)c(=O)c2)c2n[nH]c(F)c2c1` [Example 95] are 21 µL/min/mg and 7.29. Regarding `CC#CCNC(=O)CN(C)S(=O)(=O)c1cc(C)cc2cn[nH]c12` [Example 204], in data set [1], the “Human Liver Microsome Stability” value was found to be 19 µL/min/mg. For the same molecule, in data set [2], the IC50 was determined as 0.024 µM and the pIC50 was 7.35.

Consider `Cc1cc(S(=O)(=O)N(C)CC(=O)NC2COC2)c2n[nH]cc2c1` [Example 50], for which the “Human Liver Microsome Stability” value in data set [1] was 8 µL/min/mg. For the same molecule, the pIC50 in data set [2] was 7.13.

For the molecule `COc1ccc(NC(=O)CN(C)S(=O)(=O)c2cc(C)cc3cc(C#N)[nH]c23)cc1Cl` [Example 211, N-(3-chloro-4-methoxyphenyl)-2-((2-cyano-N,5-dimethyl-1H-indole)-7-sulfonamido)acetamide], the “Human Liver Microsome Stability” value in data set [1] is 358 µL/min/mg. Also, the IC50 in data set [2] was found to be 0.02 µM. Take `Cc1cc(S(=O)(=O)N(C)CC(=O)Nc2ccn(C3CCOCC3)c(=O)c2)c2[nH]ncc2c1` [Example 100]: the “Human Liver Microsome Stability” value in data set [1] came out at 6 µL/min/mg. Moreover, the pIC50 in data set [2] was 7.30. In the same order, the values of `O=C(Nc1ccc2c(c1)OCCN2C1CCOCC1)[C@@H]1CCN1S(=O)(=O)c1cc(C(F)F)cc2c(F)n[nH]c12` [Example 185] are 114 µL/min/mg and 6.74.

For `Cc1cc(S(=O)(=O)N2CC[C@H]2C(=O)Nc2ccc3c(c2)OCCN3C(C)(C)CO)c2[nH]ncc2c1` [Example 147], in data set [1], the “Human Liver Microsome Stability” value is 212 µL/min/mg. Further, the pIC50 in data set [2] is 7.43.

For the molecule `CN(CC(=O)Nc1ccn(C)c(=O)c1)S(=O)(=O)c1cc(C2CC2)cc2cn[nH]c12` [Example 35], the “Human Liver Microsome Stability” value in data set [1] worked out at 91 µL/min/mg. In addition, in data set [2], the pIC50 was 6.82. Taken in the same sequence, the figures for `CN(C)CCOc1ccc(NC(=O)CN(C)S(=O)(=O)c2cccc3cn[nH]c23)cc1Cl` [Example 164] were -16 µL/min/mg and 7.07. In the same order, the values of `CN(CC(=O)Nc1ccn(C)c(=O)c1)S(=O)(=O)c1cc(C(F)F)cc2cn[nH]c12` [Example 37] are 22 µL/min/mg and 7.32. As for `Cc1cc(S(=O)(=O)N(C)CC(=O)Nc2ccc(C3CC3)c(Cl)c2)c2[nH]c(C#N)cc2c1` [Example 215], the “Human Liver Microsome Stability” value in data set [1] was found to be 203 µL/min/mg. In addition, the IC50 in data set [2] was 0.036 µM.

With `Cc1cc(S(=O)(=O)N(C)CC(=O)Nc2nc3ccccc3o2)c2n[nH]cc2c1` [Example 76], in data set [1], the “Human Liver Microsome Stability” value was 274 µL/min/mg. Besides, in data set [2], the pIC50 was 7.00. Taken in the same sequence, the figures for `Cn1ccc(NC(=O)[C@@H]2CCN2S(=O)(=O)c2cc(Br)cc3c(F)n[nH]c23)cc1=O` [Example 151, (S)-1-((5-bromo-3-fluoro-1H-indazol-7-yl)sulfonyl)-N-(1-methyl-2-oxo-1,2-dihydropyridin-4-yl)azetidine-2-carboxamide] were -4 µL/min/mg and 6.74.

Consider `Cc1cc(S(=O)(=O)N(C)CC(=O)Nc2ccc3c(c2)OCCN3C2CCOCC2)c2[nH]c(C#N)cc2c1` [Example 181, 2-((2-cyano-N,5-dimethyl-1H-indole)-7-sulfonamido)-N-(4-(tetrahydro-2H-pyran-4-yl)-3,4-dihydro-2H-benzo[b][1,4]oxazin-7-yl)acetamide], for which the “Human Liver Microsome Stability” value in data set [1] was determined as 195 µL/min/mg. The pIC50 in data set [2] was 7.02. Turning to `CN(CC(=O)Nc1ccc2c(c1)OCCN2C1CCOCC1)S(=O)(=O)c1cc(C(F)F)cc2cn[nH]c12` [Example 171, 2-((5-(difluoromethyl)-N-methyl-1H-indazole)-7-sulfonamido)-N-(4-(tetrahydro-2H-pyran-4-yl)-3,4-dihydro-2H-benzo[b][1,4]oxazin-7-yl)acetamide], in data set [1], the “Human Liver Microsome Stability” value stood at 102 µL/min/mg. For the same molecule, in data set [2], the pIC50 is 7.11. Consider `Cc1cc(S(=O)(=O)N(C)CC(=O)Nc2ccc3c(c2)N(C2COC2)CCO3)c2[nH]ncc2c1` [Example 169], for which, in data set [1], the “Human Liver Microsome Stability” value amounted to 39 µL/min/mg. Besides, the pIC50 in data set [2] is 7.42. Taken in the same sequence, the figures for `O=C(Nc1ccc(N2CCOCC2)c(Cl)c1)[C@@H]1CCN1S(=O)(=O)c1cc(C(F)F)cc2cn[nH]c12` [Example 190, (S)—N-(3-chloro-4-morpholinophenyl)-1-((5-(difluoromethyl)-1H-indazol-7-yl)sulfonyl)azetidine-2-carboxamide] were 86 µL/min/mg and 6.95. Taken in the same sequence, the figures for `CN(CC(=O)Nc1ccc2c(c1)OCCN2C1COC1)S(=O)(=O)c1cc(C2(O)CC2)cc2cn[nH]c12` [Example 173] were 60 µL/min/mg and 6.39. Consider `CN(CC(=O)Nc1ccn(C)c(=O)c1)S(=O)(=O)c1cc(Cl)cc2cc(C#N)[nH]c12` [Example 225], for which the “Human Liver Microsome Stability” value in data set [1] was found to be 11 µL/min/mg. The IC50 in data set [2] was found to be 0.035 µM.

Turning to `CCN(CC(=O)Nc1ccc2c(c1)OCCN2C(C)(C)CO)S(=O)(=O)c1cc(C)cc2cn[nH]c12` [Example 145, 2-((N-ethyl-5-methyl-1H-indazole)-7-sulfonamido)-N-(4-(1-hydroxy-2-methylpropan-2-yl)-3,4-dihydro-2H-benzo[b][1,4]oxazin-7-yl)acetamide], in data set [1], the “Human Liver Microsome Stability” value turned out to be 92 µL/min/mg. Further, the pIC50 in data set [2] was 7.41.

On to `Cc1cc(S(=O)(=O)N(C)CC(=O)Nc2ccc3c(c2)OCCN3CC(C)(C)O)c2[nH]ncc2c1` [Example 146], for which the “Human Liver Microsome Stability” value in data set [1] was 31 µL/min/mg. Moreover, in data set [2], the pIC50 was 7.59. In the case of `O=C(Nc1ccc2c(c1)OCCN2C1COC1)[C@@H]1CCN1S(=O)(=O)c1cc(C(F)F)cc2cn[nH]c12` [Example 180, (S)-1-((5-(difluoromethyl)-1H-indazol-7-yl)sulfonyl)-N-(4-(oxetan-3-yl)-3,4-dihydro-2H-benzo[b][1,4]oxazin-7-yl)azetidine-2-carboxamide], in data set [1], the “Human Liver Microsome Stability” value amounted to 61 µL/min/mg.

In the case of `COc1ccc(NC(=O)CN(C)S(=O)(=O)c2cc(C)cc3c2NC(=O)C3)cc1Cl` [Example 2, N-(3-chloro-4-methoxyphenyl)-2-((N,5-dimethyl-2-oxoindoline)-7-sulfonamido)acetamide], the “Human Liver Microsome Stability” value in data set [1] is 490 µL/min/mg. The same measure, in the same setting: for `CC#CCNC(=O)CN(C)S(=O)(=O)c1cc(C)cc2cc(C#N)[nH]c12` [Example 210] the value was 39 µL/min/mg. On the same count and under the same terms, the figure for `CN(CC(=O)Nc1ccn(C)c(=O)c1)S(=O)(=O)c1cc(F)cc2cn[nH]c12` [Example 93] is 6 µL/min/mg; for `Cc1cc(S(=O)(=O)N(C)CC(=O)Nc2ccn(C)c(=O)c2)c2[nH]ncc2c1` [Example 6] it is -11 µL/min/mg. Still for that read-out and setting: the figure for `CCN(CC(=O)Nc1ccc2c(c1)OCCN2C)S(=O)(=O)c1cc(C)cc2cn[nH]c12` [Example 88] is 46 µL/min/mg. Take `Cc1cc(S(=O)(=O)N(C)CC(=O)Nc2ccc3c(c2)OCCN3C)c2[nH]nc(C)c2c1` [Example 92]: the “Human Liver Microsome Stability” value in data set [1] stood at 19 µL/min/mg.

For orientation: pIC50 means the IC50 on a negative log10 scale, so that one unit is a factor of ten.

Source of the values: patent US20240132480A1, “INHIBITORS OF MYCOBACTERIUM TUBERCULOSIS LIPOAMIDE DEHYDROGENASE” (Cornell University, priority 2021, published 2024).
